Where two headings read alike, the source gives them in different places.
Key:
[1] = system: Ultra-violet induced erythema; assay: Anti-inflammatory action: ultra-violet induced erythema (Winter); format: in vivo, guinea-pig; details: Cavia porcellus, read-out: 50% effective dose
Description: 2. Ultra-violet induced erythema; method of Winter Arch. intern.
(§1) In all cases the products of the invention are compared to the following reference substances, aspirin, phenylbutazone, indomethacine.

[2] = system: Brewer's yeast induced pyrexia; assay: Antipyretic action: Brewer's yeast induced pyrexia (Bianchi); format: in vivo, rat; details: read-out: 50% effective dose
Description: Antipyretic action was established on the pyretic rat by the Bianchi method.
as §1

[3] = system: Carragheen induced oedema; assay: Anti-inflammatory action: carragheen induced oedema (Winter); format: in vivo, rat; details: read-out: 50% effective dose
Description: 1. Carragheen induced odema; method of Winter Arch. intern.
as §1

[4] = system: Pain (cramp) caused by acetic acid; assay: Analgesic action: pain (cramp) caused by acetic acid in the mouse (Siegmund); format: in vivo; details: for ED50: sc, read-out: 50% effective dose
Protocol: The analgesic action was tested in relation to the pain caused in the mouse by the subcutaneous injection of acetic acid.
as §1

Cotton pellet granulema = assay: Anti-inflammatory action: cotton pellet granuloma (Winter); format: in vivo, rat; details: read-out: 50% effective dose
Description: as §1

[5] = Overall appraisal of anti-inflammatory, antipyretic and analgesic tests versus reference substances; format: in vivo; details: for overall activity compared with example 5 (in words): compared to example 5; for overall activity compared with phenylbutazone (in words): compared to phenylbutazone
Protocol: 1. Carragheen induced odema; method of Winter Arch. intern. Pharmacod. volume 112, page 174 (1957)
2. Ultra-violet induced erythema; method of Winter Arch. intern. Pharmacod. volume 114, page 261 (1958)
3. The formation of granulomae caused by the sub-cutaneous implantation of pellets of cotton in the rat; method of Winter Journal of the American Pharmaceutical Association, Science Edition, Volume 46, page 515 (1957)
The analgesic action was tested in relation to the pain caused in the mouse by the subcutaneous injection of acetic acid. Method based upon that of Siegmund, Proceedings of the Society of Experimental Biology and Medicine, volume 75, page 729 (1957)
Antipyretic action was established on the pyretic rat by the Bianchi method. Arzneimittel Forschung, volume 17, page 246 (1967)
as §1

[6] = guinea-pig, oral administration
[7] = mouse, acetic acid injected subcutaneously
[8] = rat, oral administration, sub-cutaneous implantation of cotton pellets

Row | SMILES | ED50 [1, 6] | ED50 ([2]; pyretic rat) | ED50 ([3]; rat, oral administration) | ED50 [4, 7] | ED50 (Cotton pellet granulema; [8]) | ED50 ([1]; po) | ED50 ([2]; Rattus norvegicus) | ED50 ([3]; Rattus norvegicus, po) | ED50 ([4]; Mus musculus) | overall activity compared with example 5 (in words) [5] | ED50 (Cotton pellet granulema; Rattus norvegicus, po) | analgesic effect (in words) ([4]; from the table) | overall activity compared with indomethacine (in words) ([5]; compared to indomethacine) | overall activity compared with phenylbutazone (in words) [5] | anti-inflammatory and anti-pyretic activity (in words) ([5]; from the table)
1 | CCCCC1C(=O)N(c2ccccc2)N(c2ccccc2)C1=O [PHENYLBUTAZONE, phenylbutazone, reference compound] | 8.5 mg/kg | 10 mg/kg | 120 mg/kg | 110 mg/kg | 200 mg/kg | – | – | – | – | – | – | – | – | – | –
2 | CC(=O)Oc1ccccc1C(=O)O [ASPIRIN, aspirin, reference compound] | – | – | – | – | – | 50 mg/kg | 30 mg/kg | 180 mg/kg | 130 mg/kg | – | – | – | – | – | –
3 | O=C(O)Cc1c(-c2ccccc2)c(-c2ccccc2)nn1Cc1ccccc1 [Example 1, 1-benzyl-3,4-diphenylpyrazolyl-5-acetic acid] | 1.6 mg/kg | 1 mg/kg | 60 mg/kg | 150 mg/kg | 80 mg/kg | – | – | – | – | active substances, although slightly less so than example 5 | – | – | – | – | –
4 | COc1ccc2c(c1)c(CC(=O)O)c(C)n2C(=O)c1ccc(Cl)cc1 [INDOMETHACINE, indomethacine, reference compound] | – | – | – | – | – | 1.5 mg/kg | 1.3 mg/kg | 14 mg/kg | 5.5 mg/kg | – | 8 mg/kg | – | – | – | –
5 | O=C(O)Cc1c(-c2ccccc2)c(-c2ccccc2)nn1-c1ccccc1 [Example 5, 1,3,4-triphenylpyrazolyl-5-acetic acid] | 3 mg/kg | 0.6 mg/kg | 14 mg/kg | 90 mg/kg | 6 mg/kg | – | – | – | – | – | – | marked analgesic effect | at least equivalent to indomethacine | much more powerful than phenylbutazone | powerful anti-inflammatory and anti-pyretic agent
6 | CC(C)Cn1nc(-c2ccccc2)c(-c2ccccc2)c1CC(=O)O [Example 3, 1-isobutyl-3,4-diphenylpyrazolyl-5-acetic acid] | 1 mg/kg | 0.5 mg/kg | 30 mg/kg | 180 mg/kg | 18 mg/kg | – | – | – | – | active substances, although slightly less so than example 5 | – | – | – | still more powerful than phenylbutazone | –

From patent US3984431A, “Derivatives of pyrazole-5-acetic acid” (priority 1972, dated 1976)
